In ChEMBL document CHEMBL2380247, “Synthesis and biological evaluation of novel aliphatic amido-quaternary ammonium salts for anticancer chemotherapy: part II” (2013):

Experiments:
Format in all cases: functional
[1] = test system: MDA-MB-231; assay: Antiproliferative activity against human MDA-MB-231 cells at 3 uM by SRB assay
[2] = test system: HCT-15; assay: Antiproliferative activity against human HCT15 cells at 0.1 uM by SRB assay
[3] = test system: MDA-MB-231; assay: Antiproliferative activity against human MDA-MB-231 cells at 0.1 uM by SRB assay
[4] = test system: HCT-15; assay: Antiproliferative activity against human HCT15 cells at 10 uM by SRB assay
[5] = test system: HCT-15; assay: Antiproliferative activity against human HCT15 cells by SRB assay
[6] = test system: NCI-H23; assay: Antiproliferative activity against human NCI-H23 cells at 10 uM by SRB assay
[7] = test system: PC-3; assay: Antiproliferative activity against human PC3 cells at 0.3 uM by SRB assay
[8] = test system: NCI-H23; assay: Antiproliferative activity against human NCI-H23 cells at 0.1 uM by SRB assay
[9] = test system: ACHN; assay: Antiproliferative activity against human ACHN cells at 0.3 uM by SRB assay
[10] = test system: NCI-H23; assay: Antiproliferative activity against human NCI-H23 cells at 0.3 uM by SRB assay
[11] = test system: NUGC-3; assay: Antiproliferative activity against human NUGC3 cells at 10 uM by SRB assay
[12] = test system: MDA-MB-231; assay: Antiproliferative activity against human MDA-MB-231 cells by SRB assay
[13] = test system: MDA-MB-231; assay: Antiproliferative activity against human MDA-MB-231 cells at 10 uM by SRB assay
[14] = test system: HCT-15; assay: Antiproliferative activity against human HCT15 cells at 3 uM by SRB assay
[15] = test system: PC-3; assay: Antiproliferative activity against human PC3 cells at 3 uM by SRB assay
[16] = test system: HCT-15; assay: Antiproliferative activity against human HCT15 cells at 0.3 uM by SRB assay
[17] = test system: PC-3; assay: Antiproliferative activity against human PC3 cells at 1 uM by SRB assay
[18] = test system: NUGC-3; assay: Antiproliferative activity against human NUGC3 cells at 0.3 uM by SRB assay
[19] = test system: ACHN; assay: Antiproliferative activity against human ACHN cells at 3 uM by SRB assay
[20] = test system: PC-3; assay: Antiproliferative activity against human PC3 cells by SRB assay
[21] = test system: NUGC-3; assay: Antiproliferative activity against human NUGC3 cells at 1 uM by SRB assay
[22] = test system: MDA-MB-231; assay: Antiproliferative activity against human MDA-MB-231 cells at 0.3 uM by SRB assay
[23] = test system: PC-3; assay: Antiproliferative activity against human PC3 cells at 0.1 uM by SRB assay
[24] = test system: NUGC-3; assay: Antiproliferative activity against human NUGC3 cells by SRB assay
[25] = test system: NCI-H23; assay: Antiproliferative activity against human NCI-H23 cells at 1 uM by SRB assay
[26] = test system: ACHN; assay: Antiproliferative activity against human ACHN cells at 0.1 uM by SRB assay
[27] = test system: NCI-H23; assay: Antiproliferative activity against human NCI-H23 cells by SRB assay
[28] = test system: HCT-15; assay: Antiproliferative activity against human HCT15 cells at 1 uM by SRB assay
[29] = test system: PC-3; assay: Antiproliferative activity against human PC3 cells at 10 uM by SRB assay
[30] = test system: ACHN; assay: Antiproliferative activity against human ACHN cells at 1 uM by SRB assay
[31] = test system: ACHN; assay: Antiproliferative activity against human ACHN cells at 10 uM by SRB assay
[32] = test system: ACHN; assay: Antiproliferative activity against human ACHN cells by SRB assay
[33] = test system: NUGC-3; assay: Antiproliferative activity against human NUGC3 cells at 3 uM by SRB assay
[34] = test system: NUGC-3; assay: Antiproliferative activity against human NUGC3 cells at 0.1 uM by SRB assay
[35] = test system: NCI-H23; assay: Antiproliferative activity against human NCI-H23 cells at 3 uM by SRB assay
[36] = test system: MDA-MB-231; assay: Antiproliferative activity against human MDA-MB-231 cells at 1 uM by SRB assay

Row | GI50 [5] [nM] | GI50 [12] [nM] | GI50 [20] [nM] | SMILES | growth, % of control at 3 µM [1] [%] | growth, % of control at 0.1 µM [2] [%] | growth, % of control at 0.1 µM [3] [%] | growth, % of control at 10 µM [4] [%] | growth, % of control at 10 µM [6] [%] | growth, % of control at 0.3 µM [7] [%] | growth, % of control at 0.1 µM [8] [%] | growth, % of control at 0.3 µM [9] [%] | growth, % of control at 0.3 µM [10] [%] | growth, % of control at 10 µM [11] [%] | growth, % of control at 10 µM [13] [%] | growth, % of control at 3 µM [14] [%] | growth, % of control at 3 µM [15] [%] | growth, % of control at 0.3 µM [16] [%] | growth, % of control at 1 µM [17] [%] | growth, % of control at 0.3 µM [18] [%] | GI50 [24] [nM] | also measured
1 | 2740 | 1120 | 300 | CCCCCCCCCCCCCCCCCC(=O)NCC(C)(C)C[N+](C)(C)CC | 40.4 | 98 | 87.8 | 32.6 | -18.3 | 82.2 | 95.1 | 82.9 | 97.7 | 2.11 | 19.9 | 61.6 | -38.3 | 96.7 | 21.6 | 69.6 | 420 | growth, % of control at 3 µM [19]: 50%; growth, % of control at 1 µM [21]: 52.5%; growth, % of control at 0.3 µM [22]: 79.1%; growth, % of control at 0.1 µM [23]: 89.5%; growth, % of control at 1 µM [25]: 74.7%; growth, % of control at 0.1 µM [26]: 91.5%; GI50 [27]: 980 nM; growth, % of control at 1 µM [28]: 86.8%; growth, % of control at 10 µM [29]: -46.2%; growth, % of control at 1 µM [30]: 75.5%; growth, % of control at 10 µM [31]: 33%; GI50 [32]: 1950 nM; growth, % of control at 3 µM [33]: 14.8%; growth, % of control at 0.1 µM [34]: 83.1%; growth, % of control at 3 µM [35]: 29.8%; growth, % of control at 1 µM [36]: 70.4%
2 | 3420 | 1380 | 490 | CCCCCCCCCCCCCCCC(=O)N(C)CCC[N+](C)(C)CC | 47.2 | 95.6 | 98.7 | 40.3 | -15.5 | 101 | 103 | 95 | 100 | -37.1 | 19 | 69.2 | 1.57 | 98.3 | 44.6 | 77.8 | 220 | growth, % of control at 3 µM [19]: 41.5%; growth, % of control at 1 µM [21]: 7.32%; growth, % of control at 0.3 µM [22]: 97.7%; growth, % of control at 0.1 µM [23]: 105%; growth, % of control at 1 µM [25]: 62.9%; growth, % of control at 0.1 µM [26]: 95.1%; GI50 [27]: 780 nM; growth, % of control at 1 µM [28]: 84.4%; growth, % of control at 10 µM [29]: -17.2%; growth, % of control at 1 µM [30]: 62.3%; growth, % of control at 10 µM [31]: 15.7%; GI50 [32]: 1020 nM; growth, % of control at 3 µM [33]: -18.5%; growth, % of control at 0.1 µM [34]: 101%; growth, % of control at 3 µM [35]: 31.2%; growth, % of control at 1 µM [36]: 73.3%
3 | > 10000 | 1640 | 470 | C=CC[N+](C)(C)CC(C)(C)CNC(=O)CCCCCCCCCCCCCCCCC | 48.3 | 102 | 94.3 | 61.7 | -40 | 91 | 92.8 | 93.5 | 93.7 | -5.72 | 25 | 85.5 | -27.7 | 99.8 | 33.7 | 89.9 | 770 | growth, % of control at 3 µM [19]: 60.4%; growth, % of control at 1 µM [21]: 65.2%; growth, % of control at 0.3 µM [22]: 88.8%; growth, % of control at 0.1 µM [23]: 94.9%; growth, % of control at 1 µM [25]: 75.3%; growth, % of control at 0.1 µM [26]: 93.2%; GI50 [27]: 900 nM; growth, % of control at 1 µM [28]: 99%; growth, % of control at 10 µM [29]: -45.4%; growth, % of control at 1 µM [30]: 85.1%; growth, % of control at 10 µM [31]: 3.8%; GI50 [32]: 1750 nM; growth, % of control at 3 µM [33]: 28.5%; growth, % of control at 0.1 µM [34]: 92.3%; growth, % of control at 3 µM [35]: 29.4%; growth, % of control at 1 µM [36]: 80.8%
4 | 580 | – | 480 | CCCCCCCCCCCCCCCC(=O)N1CC[N+](C)(C)CC1 | – | – | – | – | – | – | – | – | – | – | – | – | – | – | – | – | 290 | –
